Values quoted from earlier work in US20240173376A1, “TREM-1 INHIBITORS FOR THE TREATMENT OF MARFAN SYNDROME” (INSERM (INSTITUT NATIONAL DE LA SANTÉ ET DE LA RECHERCHE …, priority 2021, published 2024).

Experiments:
[1] = molecular target: T1, AT1R (Homo sapiens, UniProt P30556)
T1 construct: host or cells: patients in randomized clinical studies
T1 sequence (P30556 1-359): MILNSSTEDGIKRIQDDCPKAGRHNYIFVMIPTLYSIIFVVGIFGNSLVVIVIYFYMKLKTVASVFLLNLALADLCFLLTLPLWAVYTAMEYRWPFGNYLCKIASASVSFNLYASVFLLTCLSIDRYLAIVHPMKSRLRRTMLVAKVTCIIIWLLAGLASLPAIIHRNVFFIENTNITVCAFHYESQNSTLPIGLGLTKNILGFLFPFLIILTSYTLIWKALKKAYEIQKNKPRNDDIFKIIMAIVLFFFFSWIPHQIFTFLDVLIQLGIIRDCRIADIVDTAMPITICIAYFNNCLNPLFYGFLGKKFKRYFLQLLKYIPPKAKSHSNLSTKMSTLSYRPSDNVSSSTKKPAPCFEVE

[2] = tested on: AT1R; conditions: animal model of Marfan's disease (Hibashi et al, Science, 2006)
[3] = Marfan patients (Shores et al 1994; Ladouceur et al 2007)

| benefit in humans ([1]; randomized, double-blind, multicenter study (Milleron et al, Eur Heart J)) | progression of aortic dilatation in humans ([1]; study with comparable methodology, N=192 (Mullen et al. Lancet 2019)) | Compound | arterial wall architecture and aortic dilatation [2] | aortic dilatation and risk of dissection [3] |
| --- | --- | --- | --- | --- |
| no benefit | a benefit | CCCCc1nc(Cl)c(CO)n1Cc1ccc(-c2ccccc2-c2nn[nH]n2)cc1 [Losartan] | improves arterial wall architecture and reduces aortic dilatation |  |
|  |  | CC(C)NCC(O)COc1cccc2ccccc12 (stereo not shown) [propranolol] |  | limits aortic dilatation and the risk of dissection |
